Laboratory results: ChEMBL document CHEMBL1158778, “Paecilosetin, a new bioactive fungal metabolite from a New Zealand isolate of Paecilomyces farinosus” (J Nat Prod, 2005)
In brackets after ≈: the same amount, converted by molar mass.

Key:
[1] = system: P388; assay: Cytotoxicity against mouse P388 cells by MTT assay; assay type: functional, cell-based
[2] = system: Trichophyton mentagrophytes; assay: Antimicrobial activity against Trichophyton mentagrophytes at 40 ug/disk by agar diffusion assay; assay type: functional; settings: read-out: IZ
[3] = system: Bacillus subtilis; assay: Antimicrobial activity against Bacillus subtilis at 5 ug/disk by agar diffusion assay; assay type: functional; settings: read-out: IZ
[4] = system: Amorphotheca resinae; assay: Antimicrobial activity against Cladosporium resinae at 40 ug/disk by agar diffusion assay; assay type: functional; settings: read-out: IZ

Row | SMILES | IC50 [1] [µg/mL] | zone of inhibition at 40 µg/disc [2] [mm] | zone of inhibition at 5 µg/disc [3] [mm] | zone of inhibition at 40 µg/disc [4] [mm]
1 | CCC(C)/C=C(C)/C=C/C=C/C=C/C(=O)c1c(O)c(-c2ccc(O)cc2)cn(O)c1=O (stereo not given) [FARINOSONE B] | 1.1 (≈ 2.61 µM) | – | – | –
2 | C/C=C/[C@@H]1C=C[C@@H]2C[C@H](C)CC[C@H]2[C@]1(C)/C(O)=C1\C(=O)N[C@@H](C(C)O)C1=O (stereo not given in full) [PAECILOSETIN] | 3.2 (≈ 8.57 µM) | 3 | 3 | 1
